Measurements as given in patent US11452705B2, “Oral drug delivery composition containing oxaliplatin and method for preparing same” (ICURE BNP CO., LTD., priority 2017, dated 2022).
Values belong to the compound of their own block, whether it stands above or below them.

Tests used:
[1] = Artificial intestinal membrane permeability (PAMPA); type: in vitro ADME; settings: aqueous solution (control), PBS pH 6.8, 5 hours, room temperature
Description: Then, 200 μL was added to the donor of each well of the PAMPA plate, and 300 μL of buffer (PBS, pH 6.8) was added to each well of the receptor plate. The plate assembly was set by coupling the donor plate with the receiver plate. After 5 hours at room temperature, samples were withdrawn from donors and receptors in each well of the PAMPA plate, and the concentration was measured as follows.
The mobile phase consisted of water (pH 3.0 adjusted with phosphoric acid)-acetonitrile (99:1, v/v) and was run at a flow rate of 0.8 mL/min.
For 5-FU, injected into an HPLC system equipped with a C18 column (4.6×250 mm, 5 μm, 100 Δ; 20 μL injection), and were chromatographed using an isocratic mobile phase of deionized water (pH 3.2 adjusted with phosphoric acid) at a flow rate of 0.8 mL/min. The UV detection was carried out at 260 nm.
Effective permeability (Pe) of each drug was calculated using the following formula. Pe=−ln[1−CA(t)/Cequilibrium]/[A(1/VD+1/VA)×t]
(Pe: permeability (cm/s); A: Effective filter area (f×0.3 cm^2; f: Porosity of the filter (f=0.76)); VD: volume of the donor well (0.2 mL); VA: volume of Receptor well (0.3 mL); t: the total time of incubation in seconds (s); CA(t): concentration of drug in the receptor well at time t; Cequilibrium: [CD(t)×VD+CA(t)×VA]/(VD+VA); CD(t): concentration of residual drug in donor at time t)

[2] = In vivo oral absorption in rats, plasma OXA (Pt by AAS); settings: rat
Description: (§1) After oral and intravenous administration, 200 μL of blood was collected from a capillary in the retro-orbital plexus at different time intervals and directly mixed with 50 μL of sodium citrate (3.8% solution). Blood samples were then immediately centrifuged (2,500×g, 15 minutes, 4° C.). The plasma samples were isolated and kept frozen at −70° C. until analysis.
Before analysis, the sample was diluted with 10 mL of 3% nitric acid solution and then injected into the furnace for AAS analysis. All measurements were carried out using a Thermo Scientific iCE 3500 AAS (Thermo Fisher Scientific) equipped with a GFS35 graphite furnace and a GFS35Z autosampler. Argon was used as the purging gas at 200 mL/min, and the injection volume of the sample was 20 μL. The spectrometer was provided with a Zeeman-based background corrector, and the […].

[3] = In vitro intestinal cell membrane permeability across Caco-2 cell monolayer; type: in vitro ADME; settings: human, Solution in HBSS (control), apical to basolateral, 37° C., read-out: Apparent permeability (Papp)
Description: Caco-2 cells were seeded onto each well of 12-well Transwell® filter insert (pore size: 0.4 μm, surface area: 1.12 cm^2; Corning, N.Y., USA) at a density of 3×10^5 cells/well. Dulbecco's modified Eagle's medium (DMEM; Lonza, Basel, Switzerland) medium containing 10% fetal bovine serum (FBS; Gibco, Thermo Fisher Scientific) and 1% penicillin/streptomycin (Gibco) was changed every 48 hours for 21 to 29 days, and Caco-2 cell monolayers with a transepithelial electrical resistance (TEER) of >350 Ω·cm^2 were used for in vitro intestinal membrane permeability experiments.
First, the culture medium was removed and the monolayer was pre-incubated with 0.5 mL of Hanks' balanced salt solution (HBSS) for 20 min at 37° C. […] After processing the sample, 100-μL samples were taken from the basolateral compartment at 0.5, 1, 2, 3, 4, and 5 h. The samples were filtered through a membrane filter.

[4] = Drug release (dissolution) test, USP type 1 apparatus (basket); type: physicochemical; settings: pH 1.2, within 15 min
Description: Dissolution tests were performed in 500 mL of medium containint 0.1 N HCl solution (pH 1.2) or phosphate buffer (pH 6.8) at 37±0.2° C., using the USP type 1 apparatus (basket) rotating at 100 rpm.
Each capsule was subjected to a dissolution test, and 1-mL samples were withdrawn at 15, 30, 45, 60, 90, and 120 min. After filtration, the amount of drug released was quantified by the HPLC using a UV detector, as in Example 7, and the results are shown in FIG. 6.

[5] = In vivo oral absorption in rats, plasma 5-FU (HPLC); settings: rat
Description: as §1
To determine the plasma concentration of 5-FU, 100 μL of each standard and plasma samples were diluted with 50 μL of 20 μg/mL internal standard (IS, chlorouracil) and 100 μL of saturated ammonium sulfate solution. After vortexing for 1 min, the diluted plasma sample was extracted with a 2-mL solvent mixture of propanol and diethylether (80:20, v/v). The mixture was then centrifuged at 2,500×g for 10 min and the collected organic phase was evaporated under nitrogen at 37° C. The dried residues were reconstituted with 100 μL of mobile phase for HPLC analysis (ammonium phosphate buffer with pH 6.8/methanol, 98:2, v/v), followed by vortexing, and then determined by HPLC with a C8 column (4.6×250 mm, 5 μm) at a flow rate of 1 mL/min mobile phase. A 50-μL sample was injected and 5-FU was measured at 260 nm.

[6] = system: CT26 mouse colon tumor cells; assay: In vivo tumor growth inhibition, CT26 tumor-bearing mice; parameters: species or system BALB/c mice
Description: The CT26 mouse colon tumor cells were subcutaneously grafted into the flanks of BALB/c mice at a concentration of 1×10^6 cells/100 μL of PBS (pH 7.4). […] During 18-day treatment, mice were fasted for 4 h before oral administration and 2 h after administration. Tumors were measured every three days in two dimensions using a caliper, and tumor volumes were calculated as a^2×b×0.52, where a=width and b=length. Body weight was also measured.
At 18 days after administration, the isolated tumors masses were measured, and tumor tissues were fixed in 10% formalin for histological evaluation. Staining with proliferating cell nuclear antigen (PCNA) for cell proliferation and fluorescent terminal deoxynucleotidyl transferase-mediated dUPT nick end labeling (TUNEL) for apoptosis were carried out.

Effective permeability (Pe) [1]: 0.54±0.12 ×10^−6 cm/s
AUCinf ([2]; intravenous, OXA 5 mg/kg): 2.537 ± 1.312 µg·h/mL
AUClast ([2]; intravenous, OXA 5 mg/kg): 1.962 ± 0.746 µg·h/mL
Cmax ([2]; intravenous, OXA 5 mg/kg): 2.454 ± 0.990 µg/mL
T1/2 ([2]; intravenous, OXA 5 mg/kg): 186.2 ± 126.8 min
Bioavailability ([2]; intravenous, OXA 5 mg/kg (reference)): 100%
AUCinf ([2]; oral, OXA 10 mg/kg): 0.170 ± 0.061 µg·h/mL
AUClast ([2]; oral, OXA 10 mg/kg): 0.111 ± 0.095 µg·h/mL
Bioavailability ([2]; oral, OXA 10 mg/kg): 2.824 ± 2.428%
Cmax ([2]; oral, OXA 10 mg/kg): 0.032 ± 0.014 µg/mL
T1/2 ([2]; oral, OXA 10 mg/kg): 91.68 ± 54 min
Tmax ([2]; oral, OXA 10 mg/kg): 110 ± 17.3 min
SMILES: O=C([O-])C(=O)[O-].[NH-][C@@H]1CCCC[C@H]1[NH-].[Pt+4] (relative stereo) [OXA, cis-[(1R,2R)-1,2-cyclohexanediamine-N,N′][oxalato(2-)-O,O′]platinum]

Effective permeability (Pe) [1]: 1.27±0.46 ×10^−6 cm/s
Papp A→B at 5 h, 384.4 μM [3]: 34.6 ± 12.2 nm/s
Drug released from the nanoemulsions [4]: at least 85%
half-life ([5]; plasma, oral, 5-FU 20 mg/kg): 48.8 ± 34 min
AUCinf ([5]; intravenous, 5-FU 5 mg/kg): 0.670 ± 0.221 µg·h/mL
AUClast ([5]; intravenous, 5-FU 5 mg/kg): 0.657 ± 0.220 µg·h/mL
Cmax ([5]; intravenous, 5-FU 5 mg/kg): 0.716 ± 0.124 µg/mL
T1/2 ([5]; intravenous, 5-FU 5 mg/kg): 45.6 ± 6.54 min
Bioavailability ([5]; intravenous, 5-FU 5 mg/kg (reference)): 100%
AUCinf ([5]; oral, 5-FU 20 mg/kg): 0.287 ± 0.096 µg·h/mL
AUClast ([5]; oral, 5-FU 20 mg/kg): 0.242 ± 0.058 µg·h/mL
Bioavailability ([5]; oral, 5-FU 20 mg/kg): 9.218 ± 2.198%
Cmax ([5]; oral, 5-FU 20 mg/kg): 0.092 ± 0.008 µg/mL
Tmax ([5]; oral, 5-FU 20 mg/kg): 30 ± 0 min
SMILES: O=c1[nH]cc(F)c(=O)[nH]1 [Composition 5-FU, 5-fluorouracil]
Effect of inhibiting tumor growth compared with the group administered orally with the OXA/DCK aqueous solution ([6]; once daily oral 10 mg/kg 5-FU in water): did not show a significant difference
Inhibition of tumor growth (tumor volume) compared to the control ([6]; once daily oral, 18-day treatment, 10 mg/kg OXA and/or 10 mg/kg 5-FU): 57.9%
